Structures are written as SMILES.

Experiment [1] concerns voltage-gated Ca^2+ channels (VGCC). Nature of the experiment: Calcium channel antagonist assay (K+-evoked cytosolic Ca2+, Fluo-4). The experiment is classed as cell-based. As to conditions: SH-SY5Y cells, K+ 70 mM, mean ± SEM, read-out: IC50 (µM) Calcium channels blockade. As for the experimental part: The cytosolic Ca^2+ has been measured in SH-SY5Y cells. SH-SY5Y cells were maintained similarly to what was previously described^30. Free cytosolic Ca^2+ was measured using the fluorescent Ca^2+ indicator Fluo-4/AM (Fluo-4 acetomethoxyester). SH-SY5Y cells were seeded onto 96-well black plates at a density of 10^5 cells per well, achieving confluence after 48 h. Cells were washed with Krebs-Hepes solution (KH, in mM: 144 NaCl, 5.9 KCl, 1.2 MgCl2, 2 CaCl2, 11 D-glucose, 10 HEPES, pH 7.4). Cells were loaded with 10 µM Fluo-4/AM and 0.2% pluronic acid in KH and incubated for 45 min at 37 °C in the dark. Then, cells were washed twice with KH to remove the excess of probe. Tested compounds were incubated 10 min before K+ 70 mM was applied to evoke the increment of cytosolic Ca^2+. To normalize Fluo-4 signals, Triton X-100 (5%) and 1 M MnCl2 were applied to register both maximal and minimal fluorescence, respectively. The experiments were analyzed at excitation and emission wavelengths of 485 and 520 nm, respectively, and fluorescence was measured in a fluorescence microplate reader (FLUOstar Optima, BMG, Germany). Data were calculated as a percentage of Fmax - Fmin.
The blocking effect of the depolarization-induced Ca^2+ uptake was investigated in SH-SY5Y neuroblastoma cells stimulated with an extracellular concentration of K+ 70 mM, which induces the cell Ca^2+ levels elevation by opening voltage-gated Ca^2+ channels (VGCC), monitored with the Ca^2+-sensitive fluorescent dye Fluo-4. Nifedipine was used as positive standard.

The target in experiment [2] is T1, human recombinant butyrylcholinesterase (hBuChE; EC 3.1.1.8) (Homo sapiens, UniProt P06276).
T1 construct: purchased Sigma-Aldrich (Prague, Czech Republic)
Briefly: Cholinesterase inhibition in vitro assay (modified Ellman's method), BuChE. It counts as biochemical. The conditions noted are these: pH 7.4, 37 °C, mean ± SEM, read-out: BChE (IC50 µM). As for the experimental part:
The AChE and BuChE inhibitory activity of the tested compounds was determined using a modified Ellman's method^31, 32.Human red-blood cell acetylcholinesterase (hAChE; EC 3.1.1.7), and human recombinant butyrylcholinesterase (hBuChE; EC 3.1.1.8), 5,5'-dithiobis(2-nitrobenzoic acid) (Ellman's reagent, DTNB), phosphate buffer (PB, pH 7.4), acetylthiocholine (ATC), and butyrylthiocholine (BTC), were purchased from Sigma-Aldrich (Prague, Czech Republic). Nunc polystyrene 96-well microplates with flat-bottom shape (ThermoFisher Scientific, USA) were used for the measurement and all the assay were carried out in 0.1 M KH2PO4/K2HPO4 buffer, pH 7.4. Enzyme solution was prepared at activity 2.0 units/mL in 2 mL aliquots. The assay mixture (100 µL) consisted of 40 µL of 0.1 M phosphate buffer (pH 7.4), 20 µL of 0.01 M DTNB, 10 µL of enzyme, and 20 µL of 0.01 M substrate (ATC iodide solution). Tested compounds were dissolved first in methanol (BIGI 23 in DMSO) and then further diluted by assay buffer to the final concentration. […]. […] Enzyme with the inhibitor was preincubated for 5 min in the assay mixture and then the reaction was started by addition of 20 µL of substrate (ATC for AChE, BTC for BuChE). The enzyme activity was determined by measuring the increase in absorbance at 412 nm at 37 °C at 2 min intervals using a Multi-mode microplate reader Synergy 2 (Vermont, USA). Each concentration was assayed in triplicate. The obtained data were used to compute the percentage inhibition (I; Equation 1): I = 1−(ΔAi)/(ΔA0) [%] [formula] ΔAi indicates the absorbance change provided by cholinesterase exposed to AChE inhibitors and ΔA0 indicates absorbance change caused by intact cholinesterase (phosphate buffer was used instead of AChE inhibitor solution). […] Calculations were performed using software Microsoft Excel (Redmont, WA, USA) and GraphPad Prism version 5.02 for Windows, GraphPad Software, San Diego, CA, USA.
In general terms: Ellman's reagent forms a yellow product with free thiols.

Experiment [3] concerns the target T2, Human red-blood cell acetylcholinesterase (hAChE; EC 3.1.1.7) (Homo sapiens, UniProt P22303).
T2 construct: Human red-blood cell acetylcholinesterase; purchased Sigma-Aldrich (Prague, Czech Republic); host or cells: human red blood cells
Nature of the experiment: biochemical. The conditions noted are these: pH 7.4, 37 °C, mean ± SEM, read-out: AChE (IC50 µM). As for the experimental part:
The AChE and BuChE inhibitory activity of the tested compounds was determined using a modified Ellman's method^31, 32.Human red-blood cell acetylcholinesterase (hAChE; EC 3.1.1.7), and human recombinant butyrylcholinesterase (hBuChE; EC 3.1.1.8), 5,5'-dithiobis(2-nitrobenzoic acid) (Ellman's reagent, DTNB), phosphate buffer (PB, pH 7.4), acetylthiocholine (ATC), and butyrylthiocholine (BTC), were purchased from Sigma-Aldrich (Prague, Czech Republic). Nunc polystyrene 96-well microplates with flat-bottom shape (ThermoFisher Scientific, USA) were used for the measurement and all the assay were carried out in 0.1 M KH2PO4/K2HPO4 buffer, pH 7.4. Enzyme solution was prepared at activity 2.0 units/mL in 2 mL aliquots. The assay mixture (100 µL) consisted of 40 µL of 0.1 M phosphate buffer (pH 7.4), 20 µL of 0.01 M DTNB, 10 µL of enzyme, and 20 µL of 0.01 M substrate (ATC iodide solution). Tested compounds were dissolved first in methanol (BIGI 23 in DMSO) and then further diluted by assay buffer to the final concentration. […] Enzyme with the inhibitor was preincubated for 5 min in the assay mixture and then the reaction was started by addition of 20 µL of substrate (ATC for AChE, BTC for BuChE). […] Each concentration was assayed in triplicate. The obtained data were used to compute the percentage inhibition (I; Equation 1): I = 1−(ΔAi)/(ΔA0) [%] [formula] ΔAi indicates the absorbance change provided by cholinesterase exposed to AChE inhibitors and ΔA0 indicates absorbance change caused by intact cholinesterase (phosphate buffer was used instead of AChE inhibitor solution).

Experiment [4] in a line: Oxygen Radical Absorbance Capacity (ORAC-FL) assay. As to conditions: Trolox equivalents (µmol of Trolox equivalent/µmol of compound). As to the method:
The radical scavenging capacity of the TFAHs was determined by the ORAC-FL method using fluorescein as a fluorescent probe^33,34. (±)-6-Hydroxy-2,5,7,8-tetramethylchromane-2-carboxylic acid (Trolox), fluorescein (FL) and 2,2'-azobis(amidinopropane) dihydrochloride (AAPH) were purchased from Sigma-Aldrich. A Varioskan Flash plate reader with built-in injectors (Thermo Scientific) was used. The reaction was carried out at 37 °C in 75 mM phosphate buffer (pH= 7.4), and the final volume reaction mixture was 200 µL. The tested compounds and Trolox standard were dissolved in DMSO to 10 mM and further diluted in 75 mM phosphate buffer (pH= 7.4). The final concentrations were 0.1-1 µM for the tested compounds and 1-8 µM for Trolox standard. The blank was composed of 120 µL of FL, 60 µL of AAPH and 20 µL of phosphate buffer (pH=7.4) and was added in each assay.
The net AUC corresponding to a sample was calculated as follows: Net AUC = AUCantioxidant −AUCblank . [formula]
Regression equations were calculated by plotting the net AUC against the antioxidant concentration. The ORAC value was obtained by dividing the slope of the latter curve between the slope of the Trolox curve obtained in the same assay. Final ORAC values were expressed as µmol of Trolox equivalent/µmol of TFAH.

In a further experiment the test system is mice. Nature of the experiment: Object Recognition task (ORT), scopolamine-induced memory impairment. The experiment is classed as in vivo. As to conditions: 1 mg/kg intraperitoneally with scopolamine 0.5 mg/kg. As to the method: For behavioural studies, 50 swiss female 10-week-old weighing 25-30 g were used. Memory impairment was induced by the potent antimuscarinic drug scopolamine hydrobromide (0.5 mg/kg, Sigma) dissolved in saline buffer. To explore the potential of BIGI-3h as a cognitive enhancer, the compound was administered at a dose of 1 mg/kg and 10 mg/kg. For comparison, the antiamnesic effect of donepezil was tested (Tocris Bioscience, R&D Systems Inc.) at a dose of 1 mg/kg. Both products, 3h and donepezil, were dissolved in saline buffer containing 3.6% dimethyl sulfoxide. All drug solutions were independently prepared immediately before their use and were administered intraperitoneally in 10 mL/kg of vehicle volume. Different batches of mice were used for each experiment. The animals were distributed into 5 experimental groups (I-V): control groups (I) mice administered 3.6% DMSO in saline buffer, labelled as "control vehicle"; experimental groups (II-V) consisted of (II) mice administered scopolamine dissolved in 3.6% DMSO in saline buffer, labelled as "scop/DMSO," (III) mice co-administered scopolamine plus Donepezil, labelled as "Scopo/donep," (IV) and (V) mice co-administrated scopolamine plus BIGI-3h at 1mg/Kg and 10mg/Kg labelled respectively "Scopo/3h 1" "Scopo/3h 10".
Spontaneous object recognition was tested as described previously, 28 with slight modifications. All behavioural experiments took place during the light phase of the 12-h light/ dark cycle between 10 am and 3 pm to minimize the influence of circadian rhythm, and they were conducted with the investigators blind to treatments. […] The total time spent in active exploration of each object during T1 and T2 was determined with a computerized tracking system and image analyzer (Ethovision XT, Noldus Information Technology) that tracked the nose, centre and tail points of each mouse^45. As a criterion of active object exploration, it was measured the time spent by the animal directing its nose to the object at a distance of less than 2 cm and/or touching it with the vibrissae or nose. […]

For a further experiment, the target named is Tau(306-336) peptide (Homo sapiens, UniProt P10636). The conditions noted are these: Tau(306-336) 50 µM, inhibitor 50 µM (1:1 ratio); mean ± SEM.
Sequence of Tau(306-336) peptide (P10636 623-653 limits assumed): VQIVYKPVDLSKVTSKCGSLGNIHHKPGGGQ

T2 sequence (P22303 32-617 isoform P22303-2 limits assumed): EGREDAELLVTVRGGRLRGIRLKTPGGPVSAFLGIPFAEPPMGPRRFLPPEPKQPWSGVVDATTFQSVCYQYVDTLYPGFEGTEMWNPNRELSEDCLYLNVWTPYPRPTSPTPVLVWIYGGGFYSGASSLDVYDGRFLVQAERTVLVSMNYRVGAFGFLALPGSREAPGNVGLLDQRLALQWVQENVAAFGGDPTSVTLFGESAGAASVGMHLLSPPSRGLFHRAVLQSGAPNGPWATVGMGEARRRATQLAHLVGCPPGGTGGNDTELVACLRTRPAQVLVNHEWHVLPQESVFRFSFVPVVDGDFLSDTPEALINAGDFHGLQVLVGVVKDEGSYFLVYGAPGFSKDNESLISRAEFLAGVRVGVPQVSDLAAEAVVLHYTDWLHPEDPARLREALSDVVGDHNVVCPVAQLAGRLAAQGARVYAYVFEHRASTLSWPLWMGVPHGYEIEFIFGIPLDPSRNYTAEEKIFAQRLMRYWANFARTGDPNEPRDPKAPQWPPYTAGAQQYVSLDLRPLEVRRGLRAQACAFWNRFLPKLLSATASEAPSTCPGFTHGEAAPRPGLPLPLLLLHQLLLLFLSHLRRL
T1 sequence (P06276 29-602): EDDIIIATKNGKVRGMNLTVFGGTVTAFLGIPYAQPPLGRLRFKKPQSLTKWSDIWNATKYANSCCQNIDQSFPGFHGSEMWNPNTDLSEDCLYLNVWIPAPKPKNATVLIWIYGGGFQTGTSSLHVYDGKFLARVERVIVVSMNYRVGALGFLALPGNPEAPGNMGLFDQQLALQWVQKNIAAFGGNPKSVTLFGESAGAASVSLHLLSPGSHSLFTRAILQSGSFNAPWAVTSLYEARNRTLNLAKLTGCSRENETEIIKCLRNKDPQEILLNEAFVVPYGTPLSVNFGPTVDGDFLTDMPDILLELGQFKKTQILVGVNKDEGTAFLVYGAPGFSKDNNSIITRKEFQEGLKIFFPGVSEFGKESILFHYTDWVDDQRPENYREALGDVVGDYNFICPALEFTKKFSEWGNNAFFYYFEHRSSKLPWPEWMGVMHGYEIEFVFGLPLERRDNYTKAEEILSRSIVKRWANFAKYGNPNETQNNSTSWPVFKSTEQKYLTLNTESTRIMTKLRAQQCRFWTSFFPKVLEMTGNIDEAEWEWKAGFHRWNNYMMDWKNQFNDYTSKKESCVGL
Method for Tau(306-336) peptide: Subsequently, the sample was aliquoted dried and stored at -20 °C.
Fluorescence data were recorded every 10 min overnight with 1 min shaking at 800 rpm prior to each reading. Each inhibitor was assayed in triplicates in at least two independent experiments. […] Inhibition % are expressed as the mean ± SEM. […] Values were averaged and the presented values are expressed as the mean ± SEM.
Fluorescence data were recorded every 10 min overnight with 1 min shaking at 800 rpm prior to each reading.

For `CCOC(=O)C1=C(C)N(CCCC2CCN(Cc3ccccc3)CC2)C(=O)NC1c1coc2ccc(C(C)C)cc2c1=O` (stereo not drawn) [BIGI-3n, ethyl 1-(3-(1-benzylpiperidin-4-yl)propyl)-4-(6-isopropyl-4-oxo-4H-chromen-3-yl)-6-methyl-2-oxo-1,2,3,4-tetrahydropyrimidine-5-carboxylate], the results for the IC50 in experiment [1], in experiment [2] and in experiment [3] were 1.7 ± 0.4 µM, 4.35 ± 0.23 µM and 0.58 ± 0.02 µM, respectively. In experiment [4], the ORAC was found to be 2.45± 0.04 TE.
On to `COc1cc2c(cc1OC)C(=O)C(CC1CCN(Cc3ccccc3)CC1)C2` (stereo not drawn) [donepezil, reference compound], for which the “recognition index / discrimination index (Figure 5)” value with mice is “reversed the short-term memory impairment induced by scopolamine”.
On to `Nc1c2c(nc3ccccc13)CCCC2` [tacrine, reference compound], for which the “Inhibition of T (306-336) peptide self - aggregation (%)” value on Tau(306-336) peptide was “not able to significantly interfere”.

As a reminder, the IC50 is the concentration that gives 50% inhibition.

The values are drawn from EP4168403B1 (priority 2020, dated 2021).
